EC50 and IC50 data for 24 molecules are collected here from patent US9856262B2, “Analogues of 4H-pyrazolo[1,5-a] benzimidazole compound as PARP inhibitors” (HUBEI BIO-PHARMACEUTICAL INDUSTRIAL TECHNOLOGICAL INSTITUTE …, priority 2014, dated 2018).

Like-named read-outs stand apart in the source and are kept apart here.

In assay [1] the test system is HCC1937 cells. Description: Cellular PARylation assay. The assay is classed as cell-based. How it is done: Cellular PARylation Assay
HCC1937 cells were planted into 96 well plates at 4×10^4 cells/well and incubated at 37° C. in an incubator overnight. After being treated with a test compound for 30 min, cells were then treated with 1 mM H2O2 for 10 min. The cells were washed with 200 ul pre-chilled PBS twice and fixed with 100 ul pre-chilled methanol/acetone (7:3) on ice for 30 min. After being air-dried, the plates were blocked using PBS-Tween blocking solution (0.05%) with dissolved 5% nonfat dry milk for 30 min at room temperature. The cells were incubated with anti-PAR antibody 10H (1:100) at room temperature for 1 hour followed by washing with PBS-Tween20 for 3 times; and then added into a blocking solution including goat anti-mouse fluorescein isothiocyanate (FITC)-coupled secondary antibody and 1 μg/mL DAPI to incubate away from light at room temperature for 1 hour. After being washed with PBS-Tween20 for 3 times, the plate was analyzed with a fluorescence microplate counter (Flexstation III, Molecular Device).

Assay [2] deals with T1, PARP-1 (Homo sapiens, UniProt P09874).
T1 construct: purchased
T1 sequence (P09874 whole entry): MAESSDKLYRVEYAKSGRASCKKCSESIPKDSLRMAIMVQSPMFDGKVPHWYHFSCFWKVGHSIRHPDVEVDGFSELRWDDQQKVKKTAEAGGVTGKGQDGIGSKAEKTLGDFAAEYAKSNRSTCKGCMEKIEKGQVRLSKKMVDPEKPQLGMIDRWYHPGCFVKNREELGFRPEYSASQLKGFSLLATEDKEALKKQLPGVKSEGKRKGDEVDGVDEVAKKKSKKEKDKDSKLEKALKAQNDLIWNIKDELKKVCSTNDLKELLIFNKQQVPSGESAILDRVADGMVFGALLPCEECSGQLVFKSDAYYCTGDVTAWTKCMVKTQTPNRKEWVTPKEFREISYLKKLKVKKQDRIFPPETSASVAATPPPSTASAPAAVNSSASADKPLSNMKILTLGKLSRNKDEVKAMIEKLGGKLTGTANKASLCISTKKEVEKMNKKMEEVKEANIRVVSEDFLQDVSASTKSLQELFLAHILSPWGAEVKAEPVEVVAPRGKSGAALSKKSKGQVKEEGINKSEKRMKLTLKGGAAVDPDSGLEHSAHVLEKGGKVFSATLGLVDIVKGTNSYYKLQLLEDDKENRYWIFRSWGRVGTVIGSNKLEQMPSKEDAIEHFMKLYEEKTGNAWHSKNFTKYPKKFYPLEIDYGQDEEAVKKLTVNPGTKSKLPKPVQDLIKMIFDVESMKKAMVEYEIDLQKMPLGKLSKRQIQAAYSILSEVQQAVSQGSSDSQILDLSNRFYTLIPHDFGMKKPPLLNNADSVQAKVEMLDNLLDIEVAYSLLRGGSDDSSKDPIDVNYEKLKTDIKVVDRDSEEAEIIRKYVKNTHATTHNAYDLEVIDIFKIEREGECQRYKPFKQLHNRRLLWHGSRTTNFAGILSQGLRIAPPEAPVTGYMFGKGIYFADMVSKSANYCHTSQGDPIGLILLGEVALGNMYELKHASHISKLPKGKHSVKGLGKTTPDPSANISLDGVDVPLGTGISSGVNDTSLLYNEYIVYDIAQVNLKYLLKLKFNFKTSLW
Description: PARP enzymatic assay (HT Universal Colorimetric PARP1 Assay Kit). The assay is classed as biochemical. The following applies: read-out: PARP-1 enzymatic inhibition IC50. The protocol: PARP Enzymatic Assay (Following the Manual of HT Universal Colorimetric PARP1 Assay Kit).
Histone proteins were coated on a 96-well plate and incubated overnight at 4° C. After be washed 3 times with 200 ul PBST solution, the plate was blocked with a blocking solution and incubated for 30 min at room temperature, and then washed with PBST solution 3 times. A compound to be tested was treated and added to the plate. Thereafter, 20 μl of diluted PARP1 (1 nM) or 20 μl of PARP2 (3 nM) solution was added into the reaction system and incubated for 1 or 2 hours. 50 ul of streptavidin-HRP mixture (1:50) was added into the plate and incubated for 30 min at room temperature. The plate was then washed with three times with PBST buffer. 100 μl of (HRP) (Chemiluminescent substrate A and substrate B (1:1)) was added into the plate, and the plate was immediately read on a microplate reader (Envision, PerkinElmer).

[3] abbreviates: Homo sapiens, HCC1937 cells, compound 30 min then 1 mM H2O2 10 min, read-out: cellular PARylation EC50.

The term EC50 denotes the concentration that produces a half-maximal response. Usually IC50 stands for the concentration that gives 50% inhibition.

As for `CC1(c2cnn3c2[nH]c2cc(F)cc(C(N)=O)c23)CN(CC2CC2)C1` [Example 104, 3-(1-(cyclopropylmethyl)-3-methylazetidin-3-yl)-6-fluoro-4H-benzo[4,5]imidazo[1,2-b]pyrazole-8-carboxamide], the EC50 in assay [1] (setting [3]) fell in the range of 1 to 100 nM. Besides, the IC50 in assay [2] fell in the range of 1 to 100 nM. For the molecule `CC1(c2cnn3c2[nH]c2cc(F)cc(C(N)=O)c23)CCN(Cc2ccc(=O)[nH]n2)CC1` [Example 87, 6-fluoro-3-(4-methyl-1-((6-oxo-1,6-dihydropyridazin-3-yl)methyl)piperidin-4-yl)-4H-benzo[4,5]imidazo[1,2-b]pyrazole-8-carboxamide], the EC50 in assay [1] (setting [3]) is 101 to 1000 nM. The IC50 in assay [2] lay within 1 to 100 nM. For the molecule `NC(=O)c1cc(F)cc2[nH]c3c(C4CCNCC4)cnn3c12` [Example 1, 6-fluoro-3-(piperidin-4-yl)-4H-benzo[4,5]imidazo[1,2-b]pyrazole-8-carboxamide], the concentration for a half-maximal effect (EC50) in assay [1] (setting [3]) fell in the range of 101 to 1000 nM. In addition, the half-inhibitory concentration (IC50) in assay [2] is 1 to 100 nM. `CN(C)C1CCC(c2cnn3c2[nH]c2cc(F)cc(C(N)=O)c23)CC1` (stereo not drawn) [Example 48, 3-(4-(dimethylamino)cyclohexyl)-6-fluoro-4H-benzo[4,5]imidazo[1,2-b]pyrazole-8-carboxamide]: in assay [1] (setting [3]), the EC50 lay within 1 to 100 nM. For the same molecule, the concentration for half-maximal inhibition (IC50) in assay [2] fell in the range of 1 to 100 nM. In the case of `Cn1ccnc1CN1CCC(C)(c2cnn3c2[nH]c2cc(F)cc(C(N)=O)c23)CC1` [Example 84, 6-fluoro-3-(4-methyl-1-((1-methyl-1H-imidazol-2-yl)methyl)piperidin-4-yl)-4H-benzo[4,5]imidazo[1,2-b]pyrazole-8-carboxamide], the concentration for a half-maximal effect (EC50) in assay [1] (setting [3]) fell in the range of 1 to 100 nM. For the same molecule, the IC50 in assay [2] lay in the range of 1 to 100 nM. `NC(=O)c1cc(F)cc2[nH]c3c(-c4ccncc4)cnn3c12` [Example 45, 6-fluoro-3-(pyridin-4-yl)-4H-benzo[4,5]imidazo[1,2-b]pyrazole-8-carboxamide]: the half-maximal effective concentration (EC50) in assay [1] (setting [3]) is greater than 1000 nM. Further, the concentration for half-maximal inhibition (IC50) in assay [2] lay within 101 to 1000 nM. As for `CCN1CCCC(c2cnn3c2[nH]c2cc(F)cc(C(N)=O)c23)C1` (stereo not drawn) [Example 17, 3-(1-ethylpiperidin-3-yl)-6-fluoro-4H-benzo[4,5]imidazo[1,2-b]pyrazole-8-carboxamide], the EC50 in assay [1] (setting [3]) lay in the range of 101 to 1000 nM. The IC50 in assay [2] lay within 1 to 100 nM. On to `CC(C)N1CCC(C)(c2cnn3c2[nH]c2cc(F)cc(C(N)=O)c23)C1` (stereo not drawn) [Example 92, 6-fluoro-3-(1-isopropyl-3-methylpyrrolidin-3-yl)-4H-benzo[4,5]imidazo[1,2-b]pyrazole-8-carboxamide], for which the EC50 in assay [1] (setting [3]) was 1 to 100 nM. Further, the IC50 in assay [2] lay in the range of 1 to 100 nM.

In the case of `NC(=O)c1cc(F)cc2[nH]c3c(C4C5CNCC54)cnn3c12` (stereo not drawn) [Example 33, 3-(3-azabicyclo[3.1.0]hexan-6-yl)-6-fluoro-4H-benzo[4,5]imidazo[1,2-b]pyrazole-8-carboxamide], the concentration giving a half-maximal response (EC50) in assay [1] (setting [3]) was 101 to 1000 nM. Moreover, in assay [2], the IC50 is 1 to 100 nM. As for `Cc1nn2c([nH]c3cc(F)cc(C(N)=O)c32)c1C1(C)CCN(C(C)C)CC1` [Example 114, 6-fluoro-3-(1-isopropyl-4-methylpiperidin-4-yl)-2-methyl-4H-benzo[4,5]imidazo[1,2-b]pyrazole-8-carboxamide], the EC50 in assay [1] (setting [3]) was 1 to 100 nM. In addition, in assay [2], the half-inhibitory concentration (IC50) lay in the range of 1 to 100 nM. For `COCCN1CCC(C)(c2cnn3c2[nH]c2cc(F)cc(C(N)=O)c23)CC1` [Example 69, 6-fluoro-3-(1-(2-methoxyethyl)-4-methylpiperidin-4-yl)-4H-benzo[4,5]imidazo[1,2-b]pyrazole-8-carboxamide], the half-maximal effective concentration (EC50) in assay [1] (setting [3]) fell in the range of 1 to 100 nM. For the same molecule, the concentration for half-maximal inhibition (IC50) in assay [2] is 1 to 100 nM. Regarding `NC(=O)c1cc(F)cc2[nH]c3c(C45CC4CN(C4CCC4)C5)cnn3c12` (stereo not drawn) [Example 30, 3-(3-cyclobutyl-3-azabicyclo[3.1.0]hexan-1-yl)-6-fluoro-4H-benzo[4,5]imidazo[1,2-b]pyrazole-8-carboxamide], in assay [1] (setting [3]), the half-maximal effective concentration (EC50) lay within 1 to 100 nM. The IC50 in assay [2] lay in the range of 1 to 100 nM. For the molecule `CCN1C2CCC1CC(c1cnn3c1[nH]c1cc(F)cc(C(N)=O)c13)C2` (stereo not drawn) [Example 35, 3-(8-ethyl-8-azabicyclo[3.2.1]octan-3-yl)-6-fluoro-4H-benzo[4,5]imidazo[1,2-b]pyrazole-8-carboxamide], the EC50 in assay [1] (setting [3]) was 101 to 1000 nM. For the same molecule, in assay [2], the half-inhibitory concentration (IC50) lay within 1 to 100 nM. `NC(=O)c1cc(F)cc2[nH]c3c(CNC(=O)C4CC4)cnn3c12` [Example 40, 3-(cyclopropanecarboxamidomethyl)-6-fluoro-4H-benzo[4,5]imidazo[1,2-b]pyrazole-8-carboxamide]: the EC50 in assay [1] (setting [3]) is greater than 1000 nM. Besides, the IC50 in assay [2] lay within 1 to 100 nM. For `CC(C)(F)CN1CCC(c2cnn3c2[nH]c2cc(F)cc(C(N)=O)c23)CC1` [Example 7, 6-fluoro-3-(1-(2-fluoro-2-methylpropyl)piperidin-4-yl)-4H-benzo[4,5]imidazo[1,2-b]pyrazole-8-carboxamide], in that order: 1 to 100 nM and 1 to 100 nM. With `CC1(c2cnn3c2[nH]c2cc(F)cc(C(N)=O)c23)CCN(C2CC(F)C2)CC1` (stereo not drawn) [Example 76, 6-fluoro-3-(1-(3-fluorocyclobutyl)-4-methylpiperidin-4-yl)-4H-benzo[4,5]imidazo[1,2-b]pyrazole-8-carboxamide], the EC50 in assay [1] (setting [3]) was 1 to 100 nM. Further, the half-inhibitory concentration (IC50) in assay [2] lay within 1 to 100 nM.

As to `CCN1CCC(c2cnn3c2[nH]c2cc(F)cc(C(N)=O)c23)CC1` [Example 2, 3-(1-ethylpiperidin-4-yl)-6-fluoro-4H-benzo[4,5]imidazo[1,2-b]pyrazole-8-carboxamide], the 50% effective concentration (EC50) in assay [1] (setting [3]) lay in the range of 1 to 100 nM. The IC50 in assay [2] is 1 to 100 nM.

On to `NC(=O)c1cc(F)cc2[nH]c3c(C4CCOCC4)cnn3c12` [Example 47, 6-fluoro-3-(tetrahydro-2H-pyran-4-yl)-4H-benzo[4,5]imidazo[1,2-b]pyrazole-8-carboxamide], for which the EC50 in assay [1] (setting [3]) was greater than 1000 nM. The half-maximal inhibitory concentration (IC50) in assay [2] lay within 1 to 100 nM. As for `CC1(c2cnn3c2[nH]c2cc(F)cc(C(N)=O)c23)CCS(=O)(=O)CC1` [Example 106, 6-fluoro-3-(4-methyl-1,1-dioxidotetrahydro-2H-thiopyran-4-yl)-4H-benzo[4,5]imidazo[1,2-b]pyrazole-8-carboxamide], the 50% effective concentration (EC50) in assay [1] (setting [3]) is 101 to 1000 nM. The IC50 in assay [2] is 1 to 100 nM. As to `CCN1CCCC1c1cnn2c1[nH]c1cc(F)cc(C(N)=O)c12` (stereo not drawn) [Example 26, 3-(1-ethylpyrrolidin-2-yl)-6-fluoro-4H-benzo[4,5]imidazo[1,2-b]pyrazole-8-carboxamide], the EC50 in assay [1] (setting [3]) lay within 101 to 1000 nM. In addition, the IC50 in assay [2] lay within 1 to 100 nM. As for `CC(C)N1CCC(C)(c2cnn3c2[nH]c2cc(F)cc(C(N)=O)c23)CC1` [Example 105, 6-fluoro-3-(1-isopropyl-4-methylpiperidin-4-yl)-4H-benzo[4,5]imidazo[1,2-b]pyrazole-8-carboxamide], in assay [1] (setting [3]), the EC50 was in the range of 1 to 100 nM. In addition, in assay [2], the IC50 lay within 1 to 100 nM. In the case of `C[C@]1(c2nc3c(C(N)=O)cccc3[nH]2)CCCN1` [ABT-888, veliparib, reference compound], the EC50 in assay [1] (HCC1937 cells, compound 30 min then 1 mM H2O2 10 min, read-out: cellular PARylation EC50) was in the range of 1 to 100 nM.

Consider `NC(=O)c1cccc2cn(-c3ccc([C@@H]4CCCNC4)cc3)nc12` [MK-4827, niraparib, reference compound], for which the EC50 in assay [1] (setting [3]) lay in the range of 1 to 100 nM. Regarding `Cn1ncnc1[C@H]1c2n[nH]c(=O)c3cc(F)cc(c23)N[C@@H]1c1ccc(F)cc1` [BMN-673, reference compound], the EC50 in assay [1] (Homo sapiens, HCC1937, read-out: cellular PARylation EC50) lay in the range of 1 to 100 nM.
